Where no end group is shown, it is not given here. [ ]: non-standard residue; d: D form. βAla = NCCC(=O)O
Legend:
HIV-1IIIB = type: cell-based; conditions: CEM-SS T-cells, peptides 10 micrograms per ml, 6 days post-infection, MTS
[1] = test system: hepatitis B virus (HBV) ayw strain; assay: HBV assay in HepG2-2.2.15 cells, secreted HBV DNA by TaqMan PCR; type: cell-based; conditions: 10 micrograms per ml, six days, HBV DNA in supernatant
A549 cells = assay: Apoptosis prevention assay (C2 ceramide, Annexin-5); type: cell-based; conditions: human lung cells (A549), 10 micrograms per ml, 30 min pretreatment
Protocol: Human A549 cells (carcinomic human alveolar basal epithelial cells) were utilized in the experiments employing the Annexin-5 apoptosis assay. […] A549 cells were pretreated for 30 min with test peptides —10 micrograms per ml—followed by the exposure to C2 ceramide. […] C2 ceramide is a synthetic, membrane soluble analog of ceramide.

murine spleen cells = assay: Th1/Th2 cytokine profiling assay (Ovalbumin-restimulated spleen cells, CBA kit); type: cell-based, Balb/c mice; conditions: 10 micrograms per ml, Ovalbumin restimulation, 72 hours
Excerpt: The Balb/c mice (originated in 1923, it is a popular strain and is used in many different research disciplines. Also classified as an inbred from the production of 20 or more successive brother-sister matings, the Balb/c mouse is albino and small in size) were immunized on Days 1, 15, and 29 with Ovalbumin (Ovalbumin is the main protein found in egg white, commonly used to stimulate an immunological reaction in test animals) in PBS (5 micrograms/injection). On day 50, spleens of the mice were harvested (3 weeks after last boost with Ovalbumin). Cells were cultured (2×10^5/well in triplicate) and incubated with culture medium or test peptides —10 micrograms per ml—for 30 min. Thereafter, additional Ovalbumin was added to the cells at 10 micrograms/ml for in vitro restimulation of the cells. 72 hours later, cell supernatants were harvested and assayed using the Becton Dickinson Mouse Th1/Th2 Cytokine CBA Kit. This kit can be used to measure Interleukin-2 (IL-2), Interleukin-4 (IL-4), Interleukin-5 (IL-5), Interferon-γ (IFN-γ), and Tumor Necrosis Factor-α(TNF-α) protein levels in a single sample.

[2] = test system: Primary Human endothelial cells (HUVEC); assay: Endothelial cell migration assay; type: cell-based; conditions: 10 micrograms per ml, 22 hours
Protocol: Thereafter, designated concentration of testing peptides —10 micrograms per ml—was added in duplicate wells.

HUVEC = assay: Endothelial tube formation assay; type: cell-based, human; conditions: 10 micrograms per ml, 20 hours
Excerpt: Positive control was vehicle only. […] Raw data were expressed as average tubule lenghs in pixels±standard deviation.

HCMV strain AD169 = assay: HCMV plaque formation assay in MRC-5 cells; conditions: HCMV AD169, 10 micrograms per ml, 7-10 days
RAW 264.7 cells = assay: Phagocytosis assay (Fluorescein-labeled Escherichia coli, flow cytometry); conditions: 10 micrograms per ml, 30 min preincubation, 60 min ingestion
Protocol: RAW 264.7 (Mouse leukaemic monocyte macrophage cell line) cells were obtained from ATCC and grown in RPMI 1640 medium containing 10% FBS. Cells were incubated in 12×75 mm tubes at 37° C. with test peptides —10 micrograms per ml—for 30 min prior to adding Fluorescein-labeled Escherichia coli bacteria as the agent to be ingested. After the cells were incubated for additional 60 min at 37° C. and allowed to ingest the Fluorescein-labeled Escherichia coli bacteria, cells were fixed with 1% paraformaldehyde. The samples were then analyzed by flow cytometry to determine the amount of phagocytosis as a function of brightness (the greater the phagocytic activity, the more fluorescence in the macrophage population). Data are reported as % positive and the mean fluorescence intensity (MFI) of positively stained cells.

Row | Compound | inhibition of HIV-1 activity (antiviral activity) (HIV-1IIIB) | inhibition of HBV replication as compared to the virus control infection [1] [%] | reduction of ceramide-induced apoptosis (A549 cells) | change of the production of IFN-gamma (murine spleen cells) | change of the production of IL-4 (murine spleen cells) | change of the production of IL-5 (murine spleen cells) | change of the production of TNF-alpha (murine spleen cells) | induction of the production of IL-2 (murine spleen cells) [%] | inhibition of the migration of human endothelial cells [2] [%] | inhibition of the tube formation of human endothelial cells (HUVEC) [%] | inhibition of HCMV plaque formation as compared to the virus control experiment (HCMV strain AD169) | induction of phagocytosis as compared to the control experiment (RAW 264.7 cells)
1 | Cc1cn([C@H]2C[C@H](N=[N+]=[N-])[C@@H](CO)O2)c(=O)[nH]c1=O [AZT] | expected levels of antiviral activity | – | – | – | – | – | – | – | – | – | – | –
2 | CC(C)(C)NC(=O)[C@@H]1CN(Cc2cccnc2)CCN1C[C@@H](O)C[C@@H](Cc1ccccc1)C(=O)N[C@H]1c2ccccc2C[C@H]1O [indinavir] | expected levels of antiviral activity | – | – | – | – | – | – | – | – | – | – | –
3 | Ala-Ile-Phe-Ile-Phe-Ile-Arg-Trp-Leu-Leu-Lys-Leu-Gly-His-His-Gly-Arg-Ala-Pro-Pro-OH (AIFIFIRWLLKLGHHGRAPP-OH) [Peptide 1] | – | 44.6 | 28.2% | did not significantly change | did not significantly change | did not significantly change | did not significantly change | 156 | 19 | 23 | did not inhibit | did not induced phagocytosis
4 | [βAla]-His-OH [Peptide 2] | – | 29.6 | did not reduce | did not significantly change | did not significantly change | did not significantly change | did not significantly change | 26.5 | 8 | 21 | 4.4% | 48.6%

— patent US20100210556A1, “USE OF A PEPTIDE AS A THERAPEUTIC AGENT” (priority 2007, published 2010)
